Experimental data reported in ChEMBL document CHEMBL1134775, “Structure-based design: potent inhibitors of human brain memapsin 2 (beta-secretase)” (J Med Chem, 2001).

target: Beta-secretase 1 (Homo sapiens, UniProt P56817); experiment: Binding affinity for human brain memapsin 2
Sequence (P56817 whole entry): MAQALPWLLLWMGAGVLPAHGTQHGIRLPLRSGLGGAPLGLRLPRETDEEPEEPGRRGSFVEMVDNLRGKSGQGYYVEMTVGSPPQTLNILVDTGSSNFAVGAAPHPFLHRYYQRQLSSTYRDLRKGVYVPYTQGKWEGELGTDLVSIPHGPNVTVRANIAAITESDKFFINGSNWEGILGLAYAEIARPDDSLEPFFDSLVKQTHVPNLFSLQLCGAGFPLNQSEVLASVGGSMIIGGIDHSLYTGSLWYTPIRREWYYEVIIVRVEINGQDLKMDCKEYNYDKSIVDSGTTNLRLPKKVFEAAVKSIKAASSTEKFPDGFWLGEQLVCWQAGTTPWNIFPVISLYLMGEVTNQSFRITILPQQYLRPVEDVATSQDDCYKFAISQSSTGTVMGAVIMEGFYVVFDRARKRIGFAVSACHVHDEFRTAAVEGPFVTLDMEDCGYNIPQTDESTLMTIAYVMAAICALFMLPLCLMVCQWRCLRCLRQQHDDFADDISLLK

Ki	SMILES
2.5 nM	CSCC[C@H](NC(=O)[C@@H](NC(=O)OC(C)(C)C)C(C)C)C(=O)N[C@@H](CC(C)C)[C@@H](O)C[C@@H](C)C(=O)N[C@H](C(=O)NCc1ccccc1)C(C)C
9.4 nM	CC(C)C[C@H](NC(=O)[C@H](CS(C)(=O)=O)NC(=O)[C@@H](NC(=O)OC(C)(C)C)C(C)C)[C@@H](O)C[C@@H](C)C(=O)N[C@H](C(=O)NCc1ccccc1)C(C)C
61.4 nM	CC(C)C[C@H](NC(=O)[C@H](CC(N)=O)NC(=O)[C@@H](NC(=O)OC(C)(C)C)C(C)C)[C@@H](O)C[C@@H](C)C(=O)N[C@@H](C)C(=O)NCc1ccccc1
1130 nM	CC(C)C[C@H](NC(=O)[C@H](CS(C)(=O)=O)NC(=O)OC(C)(C)C)[C@@H](O)C[C@@H](C)C(=O)N[C@H](C(=O)NCc1ccccc1)C(C)C
5810 nM	CSCC[C@H](NC(=O)OC(C)(C)C)C(=O)N[C@@H](CC(C)C)[C@@H](O)C[C@@H](C)C(=O)N[C@H](C(=O)NCc1ccccc1)C(C)C
36 nM	CC(C)C[C@H](NC(=O)[C@H](CC(N)=O)NC(=O)C(N)C(C)C)[C@@H](O)C[C@@H](C)C(=O)N[C@@H](C)C(=O)N[C@H](CCC(=O)O)C(=O)NC(Cc1ccccc1)C(=O)O (some centres undefined)
5.9 nM	CC(C)C[C@H](NC(=O)[C@H](CC(N)=O)NC(=O)[C@@H](NC(=O)OC(C)(C)C)C(C)C)[C@@H](O)C[C@@H](C)C(=O)N[C@H](C(=O)NCc1ccccc1)C(C)C
22400 nM	CC(C)C[C@H](NC(=O)[C@H](CC(N)=O)NC(=O)OC(C)(C)C)[C@@H](O)C[C@@H](C)C(=O)N[C@@H](C)C(=O)NCc1ccccc1
50.1 nM	CSC[C@H](NC(=O)[C@@H](NC(=O)OC(C)(C)C)C(C)C)C(=O)N[C@@H](CC(C)C)[C@@H](O)C[C@@H](C)C(=O)N[C@H](C(=O)NCc1ccccc1)C(C)C
